Assay results from publication PMC11855866 (International Journal of Molecular Sciences, 2025).
In brackets after ≈: the same amount, converted by molar mass. Like-named read-outs stand apart in the source and are kept apart here. Blank lines part the entries; values can stand above or below the molecule they belong to.

Legend:
[1] = test system: HepG2 cells; experiment: MTT cytotoxicity / synergy assay, 72 h, HepG2
Protocol: (§1) The synergistic effects of drug combinations were studied in various cancer cell lines, including MCF-7 (human breast cancer), A549 (human lung cancer), U-87 MG (human malignant glioma), HepG2 (human liver cancer), and HUH7 (human liver cancer). HMEC-1, an immortalized human microvascular endothelial cell line, was used as a model for normal cells. All cell lines were purchased from ATCC (Rockville, MD, USA).
(§2) The cancer cell lines were cultured in Dulbecco’s Modified Eagle’s Medium (DMEM; Sigma-Aldrich) supplemented with 10% FBS and 1% penicillin/streptomycin mixture (10,000 U/mL penicillin and 10 mg/mL streptomycin; Sigma-Aldrich) at 37 °C in a humidified atmosphere with 5% CO2.
(§3) For the MTT assay, exponentially growing cells were seeded into 96-well plates at a density of 5 × 10³ cells per well. After 24 h of incubation, the medium was replaced with 100 µL of fresh medium containing the tested compounds. After 72 h of treatment, cell viability was assessed using the MTT assay as described earlier. […] IC50 values were calculated using GraphPad Prism 9 software (GraphPad Software).

[2] = Hemolysis (Drabkin's method); assay type: cell-based; conditions: human, washed erythrocyte (RBC) suspension, 40% hematocrit, pH 7.4, single drug, RT, dark, CTRL− 11.6%
Protocol: Blood samples were collected from healthy human volunteers into Vacutainer tubes containing 3% sodium citrate (BD Biosciences, Warsaw, Poland). Whole blood was centrifuged at 1500 rpm (RCF = 214 g) for 10 min in a CompactStar CS4 centrifuge (VWR) at RT to separate erythrocytes, which were washed twice with PBS (pH 7.4) and centrifuged at 1500 rpm for 5 min at RT after each wash. Hematocrit was measured to adjust the final RBC concentration in PBS (pH 7.4) to 40%. The drugs were then dissolved in the RBC suspension at the final concentrations outlined in Figure 8. RBCs incubated in dH2O were used as a positive control (100% hemolysis), while RBCs in PBS were used as the negative control. A blank sample of PBS without RBCs or drugs provided a baseline for absorbance measurements. Experimental samples, along with positive, negative, and vehicle (0.5% DMSO) controls, were incubated for 4 h at RT in the dark. After incubation, the samples were centrifuged at 1500 rpm for 5 min at RT, and the supernatant was collected to measure hemoglobin release using Drabkin’s method. Absorbance was measured at 540 nm with a Jenway 6305 UV/Vis spectrophotometer (Bibby Scientific, Staffordshire, UK). This study was conducted in triplicate. The percentage of hemolysis was calculated by comparing the absorbance at 540 nm (OD540) of the test sample with that of the positive control using the following formula:(2) % Hemolysis=OD540Test−OD540(Blank)/OD540Total Lysis−OD540(Blank)×100%

[3] = test system: HMEC-1 cells; experiment: MTT cytotoxicity / synergy assay, 72 h, HMEC-1; conditions: read-out: IC50 Value in Specific Cell Line, HMEC-1; for CC50: Homo sapiens, HMEC-1, 72 h
Protocol: as §1, §2, §3

[4] = DLS particle size measurements; assay type: physicochemical; conditions: 100–500 µM CHLO, […] BSA, 0.05% Tween-80
Protocol: Dynamic light scattering (DLS) measurements were performed using a Zetasizer Nano ZS instrument (Malvern Instruments, Malvern, UK). Samples of 2 mL were placed in disposable PMMA cuvettes (cat. #634-0677; VWR, Gdańsk, Poland) and measured at 37 °C. To ensure accuracy, each sample was measured at least three times. The data were processed using DTS v6.2 software (Malvern Instruments).

[5] = parameters: method as in Figure S2 [39–71]; conditions: ref Figure S2 [39–71]; cited from earlier work
[6] = test system: MCF-7 cells; experiment: MTT cytotoxicity / synergy assay, 72 h, MCF-7; assay type: cell-based, human; conditions: 72 h; for decrease in cell viability caused by 0.05% Tween-80: with vs. without 0.05% Tween-80; for IC50: MTT, n.d. = IC50 not achieved within concentrations tested, read-out: IC50 Value in Specific Cell Line, MCF-7
Protocol: Stock solutions of the tested compounds were first prepared in DMSO at 200-fold the intended final concentration. […] The cells were treated for 72 h under the same conditions.
Following treatment, 25 μL of MTT solution was added to each well, and the plates were incubated for 2 h at 37 °C. […] IC₅₀ values, indicating the concentration required to reduce cell viability by 50% compared to untreated controls (set as 100% viability), were calculated using GraphPad Prism 9 software (GraphPad Software, San Diego, CA, USA). All data from this preliminary cytotoxic assay were analyzed by ANOVA followed by Tukey’s post hoc test for multiple comparisons, with significance set at p < 0.05. A similar statistical approach was used for the rest of the experimental work presented in this study.

[7] = test system: A549, HepG2, MCF-7, and U-87MG; experiment: Doxorubicin accumulation assay, sensitive cell lines; assay type: cell-based, human
Protocol: Cells were seeded at a density of 2 × 10^4 cells per well in black 96-well plates as described in Section 3.6.

[8] = test system: HSA; parameters: method as in Figure S2 [39–71]; conditions: ref Figure S2 [39–71]; cited from earlier work
[9] = test system: A549 cells; conditions: human
Protocol: as §1, §2, §3

[10] = test system: HepG2 cells; conditions: human
Protocol: as §1, §2, §3

[11] = test system: U-87MG cells; experiment: MTT cytotoxicity / synergy assay, 72 h, U-87MG; assay type: cell-based; conditions: Homo sapiens, n.d. = IC50 not achieved within concentrations tested, read-out: IC50 Value in Specific Cell Line, U-87MG
Protocol: as §1, §2, §3

[12] = test system: HuH7 cells; experiment: MTT cytotoxicity / synergy assay, 72 h, HuH7; conditions: Homo sapiens; for IC50: Huh-7, 72 h, read-out: IC50 Value in Specific Cell Line, HuH7
Protocol: as §1, §2, §3

[13] = test system: A549 cells; experiment: MTT cytotoxicity / synergy assay, 72 h, A549; conditions: Homo sapiens, A549, 72 h, read-out: IC50 Value in Specific Cell Line, A549
Protocol: as §1, §2, §3

[14] = test system: mammary tumors; conditions: 20 days; GLIB 0.06 mg/kg/day orally, tamoxifen 1 mg/kg/day s.c.; cited from earlier work
[15] = test system: MRP1; conditions: cited from earlier work
[16] = biological target: BSA; parameters: method as in PMID 29772022; conditions: read-out: Kd (binding to BSA); cited from earlier work
[17] = test system: mammary tumors; conditions: 20 days; GLIB 0.06 mg/kg/day orally, tamoxifen 1 mg/kg/day s.c.; cited from earlier work; remark: listed apart in the source
[18] = test system: MCF-7 cells; conditions: read-out: IC50 value, MCF-7; cited from earlier work
[19] = Analysis of drug stability in PBS; assay type: physicochemical; conditions: equimolar mixtures with DOXO, PBS (pH 7.4), 37 °C, 7 to 14 days
Protocol: The samples were prepared in PBS (pH 7.4) containing 0.05% (v/v) Tween-80 and 0.5% (v/v) DMSO. […] The samples were placed into 2 mL HPLC vials, sealed, and incubated at 37 °C for 7 to 14 days. Every 24 h, 20 µL aliquots were taken for HPLC analysis.

[20] = test system: 4T1 breast cancer and B16F10 melanoma xenografts; conditions: 4T1, B16F10 xenografts, MMTV-PyMT; cited from earlier work
[21] = Homo sapiens, HepG2, 72 h, read-out: IC50 Value in Specific Cell Line, HepG2

Molecule: CCCCNC(=O)NS(=O)(=O)c1ccc(N)cc1 [CARB, Carbutamide]
IC50 [1, 21]: 70.7 ± 1.4 µM

aggregate formation [4]: do not form aggregates
Molecule: CCCNC(=O)NS(=O)(=O)c1ccc(Cl)cc1 [CHLO, Chlorpropamide]
IC50 ([1]; Homo sapiens, HepG2, 72 h, read-out: IC50 Value in Specific Cell Line, HepG2, MTT, 72 h, n.d. = IC50 not achieved within concentrations tested): 480 ± 54.1 µM
hemolysis at 4 h [2]: 11.2 to 11.9%
CC50 [3]: 218.2 ± 1.6 µM
solubility [5]: 1000 µM (≈ 277 µg/mL)
decrease in cell viability caused by 0.05% Tween-80 [6]: 3.2%
IC50 ([6]; Homo sapiens, MCF7, 72 h): > 500 µM
increase of DOXO levels [7]: up to 2.3 times
nKa (global affinity constant, HSA) [8]: 62000 M⁻¹

Molecule: COc1cccc2c1C(=O)c1c(O)c3c(c(O)c1C2=O)C[C@@](O)(C(=O)CO)C[C@@H]3O[C@H]1C[C@H](N)[C@H](O)[C@H](C)O1 [DOXO, Doxorubicin]
IC50 [1, 21]: 0.3 ± 0.01 µM
A549 cell viability [9]: 0.643 ± 0.002
hemolysis at 4 h [2]: 32.3%
HepG2 cell viability [10]: 0.695 ± 0.003
CC50 [3]: 0.08 ± 0.01 µM
decrease in cell viability caused by 0.05% Tween-80 [6]: 12.6%
IC50 ([6]; Homo sapiens, MCF7): 0.46 ± 0.06 µM
IC50 [11]: 0.57 ± 0.11 µM
IC50 [12]: 0.28 ± 0.02 µM
viability at 0.65 µM ([12]; Huh-7, read-out: HuH7 cell viability): 53.5 ± 0.4%
IC50 [13]: 0.27 ± 0.02 µM

Molecule: COc1ccc(Cl)cc1C(=O)NCCc1ccc(S(=O)(=O)NC(=O)NC2CCCCC2)cc1 [GLIB, Glibenclamide]
tumors responded (regressed or remained stable) [14]: 64%
concentration increasing intracellular accumulation of calcein [15]: ≥ 3.12 µM
Kd [16]: 0.67 µM
CC50 [3]: 248 ± 3.6 µM
tumors responded [17]: no response
IC50 [18]: 325 µM
IC50 [12]: 493.2 ± 1.3 µM

stability [19]: slow but noticeable degradation
Molecule: Cc1ccc(S(=O)(=O)NC(=O)NN2CC3CCCC3C2)cc1 (stereo not shown) [GLIC, Gliclazide]
Kd [16]: 155 µM
CC50 [3]: 447.7 ± 2.3 µM
IC50 ([6]; Homo sapiens, MCF7, 72 h): 87.9 µM
IC50 [18]: 216 µM

Molecule: Cc1cnc(C(=O)NCCc2ccc(S(=O)(=O)NC(=O)NC3CCCCC3)cc2)cn1 [GLIP, Glipizide]
IC50 [1, 21]: 229 ± 10.9 µM
CC50 [3]: 454.1 ± 1.8 µM
effect on tumor growth and metastasis [20]: inhibited tumor growth and metastasis
IC50 ([6]; Homo sapiens, MCF7): 339 ± 18.8 µM
IC50 [12]: 421.9 ± 0.5 µM

Molecule: COc1ccc2c(c1)C(=O)N(CCc1ccc(S(=O)(=O)NC(=O)NC3CCCCC3)cc1)C(=O)C2(C)C [GLIQ, Gliquidone]
IC50 [1, 21]: 39.6 ± 2.6 µM
hemolysis at 4 h [2]: 11.2 to 11.9%
CC50 [3]: 157 ± 2.2 µM
IC50 ([6]; Homo sapiens, MCF7): 68.8 ± 2.5 µM
IC50 [11]: 57.1 ± 1.8 µM
increase of DOXO levels [7]: up to 2.3 times
IC50 [12]: 400.7 ± 2.2 µM
IC50 [13]: 259 ± 16.3 µM

Molecule: COCCCNC(=O)NS(=O)(=O)c1ccc(C)cc1 [MESU, N-(3-methoxy-propyl)-N’-(toluene-4-sulfoyl)-urea]
IC50 ([1]; read-out: IC50 Value in Specific Cell Line, HepG2, MTT, 72 h, n.d. = IC50 not achieved within concentrations tested): 63.1 ± 0.3 µM
IC50 ([3]; MTT, 72 h, n.d. = IC50 not achieved within concentrations tested): 78.3 ± 2.4 µM
IC50 [6]: 495.9 ± 0.8 µM

stability [19]: slow but noticeable degradation
Molecule: Cc1ccc(S(=O)(=O)NC(=O)NN2CCCCCC2)cc1 [TOLA, Tolazamide]
IC50 [1, 21]: 470 ± 12.4 µM
CC50 [3]: 468.6 ± 0.5 µM

Molecule: CCCCNC(=O)NS(=O)(=O)c1ccc(C)cc1 [TOLB, Tolbutamide]
IC50 [1, 21]: 232 ± 21.6 µM
CC50 [3]: 88.2 ± 4.1 µM
IC50 ([6]; Homo sapiens, MCF7): 461 ± 53.9 µM

Molecule: CC/C(=C(\c1ccccc1)c1ccc(OCCN(C)C)cc1)c1ccccc1 [tamoxifen]
tumors responded (regressed or remained stable) [14]: 57%
tumors responded [17]: 75%

Molecule: Tween-80
concentration above which survival of MCF-7 cells is significantly reduced [6]: above 0.05 % (v/v)
